In data set [1] the test system is Plasmodium falciparum. Put plainly: Antiplasmodial activity against Plasmodium falciparum CSL-2 harboring DHFR NRNL haplotype C59R/S108N/I164L triple mutant. Format: functional, organism-based.
Data set [2] has as its system Plasmodium falciparum. Put plainly: Antiplasmodial activity against Plasmodium falciparum V1/S harboring DHFR IRNL haplotype N51I/C59R/S108N/I164L quadruple mutant. The format is functional, organism-based.
Another data set deals with Vero. Put plainly: Cytotoxicity against African green monkey Vero cells. Format: cell-based. The settings on record: chlorocebus sabaeus.
The target of another data set is T1, Dihydrofolate reductase (Homo sapiens, UniProt P00374).
T1 sequence (P00374 whole entry): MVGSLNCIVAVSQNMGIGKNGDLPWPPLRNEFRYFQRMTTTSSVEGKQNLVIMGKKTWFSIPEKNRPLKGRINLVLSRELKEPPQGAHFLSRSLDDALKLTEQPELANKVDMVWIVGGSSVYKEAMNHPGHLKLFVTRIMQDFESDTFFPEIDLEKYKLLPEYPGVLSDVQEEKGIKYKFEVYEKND

The subject of data set [3] is Plasmodium falciparum. Put plainly: microbe, parasite or virus in culture. The settings on record: TM4/8.2.
For data set [4], the system named is Plasmodium falciparum. Put plainly: microbe, parasite or virus in culture. The settings on record: K1CB1.
The subject of data set [5] is Plasmodium falciparum. Put plainly: microbe, parasite or virus in culture. The settings on record: W2.
The nature of data set [6]: Solubility of the compound. The format is physicochemical.
Data set [7] can be described thus: Inhibition of Plasmodium falciparum TM4/8.2 wild type DHFR NCSI haplotype.

Results on four molecules are retold here after ChEMBL document CHEMBL4325930, “Hybrid Inhibitors of Malarial Dihydrofolate Reductase with Dual Binding Modes That Can Forestall Resistance” (ACS Med Chem Lett, 2018).

Values after ≈ are worked out from the molar mass of the structure shown.

With `CCc1nc(N)nc(N)c1-c1cccc(Cl)c1`, the IC50 – broadly, the concentration at which inhibition is half-maximal – with Plasmodium falciparum [1] amounted to 2.53 µM; with Plasmodium falciparum [2], 9.1 µM; with Plasmodium falciparum [3], 0.42 µM; in the data set on Plasmodium falciparum [4], 1.31 µM; in the data set with Plasmodium falciparum [5] it was 3.94 µM. Further, in the data set with Vero, the Activity was found to be 7 µM. The Ki (as a rule, the equilibrium dissociation constant of an inhibitor or competing ligand from its target) on Dihydrofolate reductase was determined as 0.0016 µM.
On to `Cc1nc(N)nc(N)c1OCCCOc1cc(Cl)c(Cl)cc1Cl`, for which the IC50 is 3.5 µM with Plasmodium falciparum [2] and 0.23 µM with Plasmodium falciparum [3].
In the case of `CCc1nc(N)nc(N)c1OCCCOc1ccc(-c2c(N)nc(N)nc2CC)cc1`, the concentration in solution in [6] (solubility) was 1 µM (≈ 0.425 µg/mL).
For the molecule `CCc1nc(N)nc(N)c1-c1ccc(Cl)cc1` [PYRIMETHAMINE], the Ki in data set [7] worked out at 0.0006 µM. In addition, the IC50 with Plasmodium falciparum [1] is 42 µM; in the data set on Plasmodium falciparum [2], over 100 µM.
